Tests used:
[1] = system: Jurkat cells; assay: Cell surface disulfide bond reduction: free sulfhydryl groups detected with iodoacetylbiotin and FITC-avidin; format: cell-based, human; settings: 1 mM phosphine, 1 hour, relative to cells exposed to iodoacetylbiotin alone, FIG. 9
Experimental: To satisfy the requirement of chemical orthogonality, both participants in the reaction may not engage functional groups endogenous to cells. Triarylphosphines are mild reducing agents, which raises the possibility of disulfide bond reduction as an undesirable side reaction. We addressed this issue by incubating Jurkat cells with triarylphosphine, an intermediate in the synthesis of 47, and quantifying the appearance of free sulfhydryl groups on the cell surface with iodoacetylbiotin and FITC-avidin (FIG. 9). Following incubation, cells were pelleted washed with PBS, and diluted to a volume of 240 μl. Samples were combined with 60 μl of a solution of iodoacetylbiotin (5 mM in PBS), After incubation in the dark at room temperature for 1.5 hrs, the cells were washed with buffer, stained with FITC-avidin, and analyzed by flow cytometry.
After 1 hour in the presence of 1 mM triarylphosphine, no detectable increase in free sulfhydryl groups was observed relative to cells exposed to iodoacetylbiotin alone (FIG. 9). In a positive control experiment, Jurkat cells were incubated with the trialkylphosphine TCEP (1 mM, 1 hour, room temperature), a commercial disulfide bond reducing agent. […] Therefore, triarylphosphines are essentially unreactive toward disulfide bonds under these conditions, rendering ligation with azides the predominant pathway for reactivity.

[2] = system: Jurkat cells; assay: Growth of Jurkat cells incubated with ManAz for three days (cell counting); format: cell-based, human; settings: ManAz at a range of concentrations, ManNAc as negative control, FIG. 1
Experimental: Jurkat cell cultures. Cell cultures of Jurkat were maintained in RPMI 1640 media (Gibco Laboratories, Grand Island, N.Y.) supplemented with 5% fetal bovine serum (FBS, Hyclone, Logan, Utah), 50 units/mL of penicillin and 50 μg/mL of streptomycin (Mediatech, Hemdon, Va.), in a humidified 5% CO2 atmosphere at 37° C. Cell densities were determined using a Coulter Counter-Z2 (Coulter, Miami, Fla.),
Treatment of cells with mannosamine derivatives. Cultures of Jurkat cells were seeded at a density of 1.25×10^5 cells/mL into 12-well tissue culture plates in a total volume of 2 mL of culture media. The appropriate amount of each sugar (1, 3, 20, 36, 37) in a solution of PBS was added and the cells were incubated for 3 d. Control wells containing no added sugar were also seeded with cells and incubated.
(§1) Toxicity was ascertained by incubating Jurkat cells, a human T-cell lymphoma cell line, with ManAz for three days at a range of concentrations, using the natural substrate ManNAc (1) as a negative control. Each experiment was performed in triplicate. The cells were counted to determine whether addition of 20 was inhibiting cell growth.

[3] = system: Jurkat cells; assay: Propidium iodide assay, percentage of viable cells by flow cytometry; format: cell-based, human; settings: Jurkat cells after 3 days with ManAz, FIG. 2
Experimental: Flow cytometry. Flow cytometry analysis was performed on a Coulter EPICS® XL-MCL cytometer (Coulter, Miami, Fla.) using a 488 nm argon laser. At least 10^4 viable cells were analyzed from each sample. Dead cells were excluded from the analysis using forward/side scatter gating.
Propidium iodide assay. After growth in the presence of the appropriate sugars, cells were pelleted (3000×g, 2 min), washed twice with 1 mL avidin staining buffer (0.1% NaN3, 0.1% FBS in PBS, pH 7.4) and diluted to a volume of 300 μL. Immediately prior to flow cytometry analysis, 10 μL of propidium iodide solution (1 mM in PBS) was added to each sample.
as §1

[4] = system: cell surface; assay: Side-by-side comparison with the cell surface ketone reaction; format: cell-based; settings: same reagent concentrations
Excerpt: This may reflect either a faster reaction at the cell surface, or more efficient metabolism of azidosugar 20 as compared to the ketosugar. The azide has a major advantage over the ketone in that its reactivity is unique in a cellular context due its abiotic nature. Ketones, by contrast, abound inside cells in the form of metabolites such as pyruvic acid and oxaloacetate. It should be noted that the modified Staudinger reaction is chemically orthogonal to ketone ligations and should allow tandem modification of cell surfaces with the two chemistries.

[5] = system: Jurkat cells; assay: Competition with ManLev metabolism: cell surface ketone detection with biotin hydrazide and FITC-avidin, flow cytometry; format: cell-based, human; settings: 3 days, increasing concentrations of acetylated ManAz (Ac4MA) with acetylated ManLev (Ac4ML), FIG. 3
[6] = system: Jurkat cells; assay: Cell surface azide expression: reaction with biotinylated phosphine, FITC-avidin staining, flow cytometry; format: cell-based, human
[7] = system: HeLa cells; assay: Cell surface azide expression and growth after the modified Staudinger reaction in HeLa cells

Molecule: O=C(O)CCP(CCC(=O)O)CCC(=O)O [TCEP]
- free sulfhydryl groups on the cell surface [1]: dramatic increase in free cell-surface sulfhydryl groups

Molecule: [N-]=[N+]=NCC(=O)N[C@@H]1C(O)O[C@H](CO)[C@@H](O)[C@@H]1O (stereo partly drawn) [compound 20, N-azidoacetylmannosamine]
- number of cells observed after 3 days of growth [2]: a decrease in the number of cells observed after 3 days of growth in a dose-dependent fashion
- percentage of viable cells [3]: No significant change in the percentage of viable cells
- fluorescence of azidosugar metabolism plus phosphine reaction versus ketosugar metabolism plus hydrazide reaction [4]: two-fold higher fluorescence

Molecule: CC(=O)OC[C@H]1OC(OC(C)=O)[C@@H](NC(=O)CN=[N+]=[N-])[C@@H](OC(C)=O)[C@@H]1OC(C)=O (stereo partly drawn) [compound 36, 1,3,4,6-Tetra-O-acetyl-N-azidoacetylmannosamine]
- fluorescence from ketone labeling (competition with acetylated ManLev) [5]: proportionately decreasing fluorescence
- biotin moieties accumulated on the cell surface ([6]; 40 μM acetylated 3 for 3 days, then 2 mM compound 5 for 3 hours): approximately 4.5 million
- biotin moieties accumulated on the cell surface ([6]; 40 AM acetylated 20 for 3 days, then 2 mM compound 47 for 3 hours): approximately 4.5 million
- biotin moieties accumulated on the cell surface ([6]; acetylated 20 for 3 days, then 1 mM compound 47 for 1 hour, calibrated with biotinylated beads): approximately 850,000 biotin moieties
- fluorescence (biotin moieties on the cell surface, FITC-avidin) ([6]; acetylated azidosugar 20 μM for 3 days, then compound 47 (1 mM in PBS, pH 7.4) 1 hr at room temperature, versus untreated cells, FIG. 5): dramatic increase in fluorescence
- growth rate after the modified Staudinger reaction ([7]; HeLa cells cultured for an additional 3 days after the reaction): no change in growth rate
- fluorescence after azidosugar incubation and phosphine reaction ([7]; HeLa cells, compared with the Jurkat result): responded similarly

Molecule: tunicamycin [reference compound]
- fluorescence signal with tunicamycin added during azidosugar incubation ([6]; tunicamycin present during incubation with the azidosugar): reduced

From patent US7939626B2, “Chemoselective ligation” (The Regents of the University of California, priority 2000, dated 2011)
